Biological target: T1, Lp-PLA2 (Homo sapiens, UniProt Q13093)
T1 construct: aliquoted and thawed 40 μL of pooled human plasma was previously added; from tissue; host or cells: pooled human plasma
T1 sequence (Q13093 22-441): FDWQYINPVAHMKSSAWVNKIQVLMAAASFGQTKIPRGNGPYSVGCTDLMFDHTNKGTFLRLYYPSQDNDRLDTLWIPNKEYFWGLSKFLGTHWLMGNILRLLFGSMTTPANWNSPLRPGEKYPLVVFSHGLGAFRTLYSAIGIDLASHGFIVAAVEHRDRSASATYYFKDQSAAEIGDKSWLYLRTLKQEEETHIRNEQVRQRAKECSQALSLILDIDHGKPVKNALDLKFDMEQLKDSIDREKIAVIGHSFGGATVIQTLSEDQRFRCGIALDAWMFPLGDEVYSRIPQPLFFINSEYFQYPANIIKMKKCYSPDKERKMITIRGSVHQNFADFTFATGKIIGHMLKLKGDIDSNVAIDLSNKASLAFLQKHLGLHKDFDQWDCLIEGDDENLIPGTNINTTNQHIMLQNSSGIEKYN
Experiment: Lipoprotein-associated phospholipase A2 (Lp-PLA2) human plasma assay (Thio-PAF assay)
Type: biochemical
Settings: Comparison of activity data (I); pooled human plasma, 2-thio-PAF substrate, 30-min pre-incubation

SMILES | IC50 [nM]
O=c1nc(OCc2cc(F)c(F)c(F)c2)cc2n1CC13CCC(CC1)N23 [Example 52, 3-((3,4,5-trifluorobenzyl)oxy)-7,8-dihydro-1H,6H,9H-6,8a-ethanopyrrolo[1′,2′:3,4] imidazo[1,2-c]pyrimidin-1-one] | 16
CC12COCCN1c1cc(OCc3cc(F)c(F)c(F)c3)nc(=O)n1C2 (stereo not shown) [Example 86] | 6.1

Same assay, conditions: Lp-PLA2 human plasma assay (Thio-PAF), pooled human plasma, 30-min pre-incubation at room temperature

SMILES | IC50 [nM]
O=c1nc(OCc2ccc(Oc3ccnc(C(F)(F)F)c3)c(F)c2)cc2n1CC13CCC(CC1)N23 [Example 118, 3-((3-fluoro-4-((2-(trifluoromethyl)pyridin-4-yl)oxy)benzyl)oxy)-7,8-dihydro-1H,6H,9H-6,8a-ethanopyrrolo[1′,2′:3,4] imidazo[1,2-c]pyrimidin-1-one] | 6
CC12CCCCN1c1cc(OCc3cc(F)c(Oc4cnc(C(F)(F)F)nc4)c(F)c3)nc(=O)n1C2 (stereo not shown) [Example 67, 3-((3,5-difluoro-4-((2-(trifluoromethyl)pyrimidin-5-yl)oxy)benzyl)oxy)-9a-methyl-6,7,8,9,9a,10-hexahydro-1H-pyrido[1′,2′:3,4]imidazo [1,2-c]pyrimidin-1-one] | 8.7
N#Cc1cc(F)cc(COc2cc3n(c(=O)n2)C[C@]24CO[C@H](CN32)C4)c1 [Example 141, 3-fluoro-5-((((3S,11aR)-9-oxo-3,4-dihydro-1H,9H,11H-3,11a-methanopyrimido[6′,1′:2,3]imidazo[5,1-c][1,4]oxazin-7-yl)oxy)methyl)benzonitrile] | 6.1
O=c1nc(OCc2ccc(Oc3ccc(Cl)c(C(F)(F)F)c3)c(F)c2)cc2n1CC13CCC(CC1)N23 [Example 127, 3-((3-fluoro-4-(4-chloro-3-(trifluoromethyl)phenoxy)benzyl)oxy)-7,8-dihydro-1H,6H,9H-6,8a-ethanopyrrolo[1′,2′:3,4] imidazo[1,2-c]pyrimidin-1-one] | 2.6
N#Cc1cc(COc2cc3n(c(=O)n2)CC24CCC(CC2)N34)ccc1Oc1ccnc(C(F)(F)F)c1 [Example 51] | 3.3
COc1c(CCc2ccc(Oc3ccnc(C(F)(F)F)c3)cc2)nc(=O)n2c1N1C[C@@H]3C[C@]1(CO3)C2 [Example 170, (3S,11aR)-6-Methoxy-7-(4-((2-(trifluoromethyl)pyridin-4-yl)oxy)phenethyl)-3,4-dihydro-1H,9H,11H-3,11a-methanopyrimido[6′,1′:2,3]imidazo[5,1-c] [1,4]oxazin-9-one] | 178
O=c1nc(OCc2ccc(Oc3ccnc(C(F)F)c3)c(F)c2)cc2n1CC13CC(CN21)C3 [Example 162] | 6.5
CC12CCCCN1c1cc(OCc3ccc(F)c(F)c3)nc(=O)n1C2 (stereo not shown) [Example 74, 3-((3,4-difluorobenzyl)oxy)-9a-methyl-6,7,8,9,9a,10-hexahydro-1H-pyrido [1′,2′:3,4]imidazo[1,2-c]pyrimidin-1-one] | 22.3
COc1c(OCCc2ccc(Oc3ccnc(C(F)(F)F)c3)cc2)nc(=O)n2c1N1CC3CC1(C3)C2 [Example 188] | 9.2
COc1c(OCCc2cc(F)c(Oc3ccnc(C(F)(F)F)c3)c(F)c2)nc(=O)n2c1N1CC3CC1(C3)C2 [Example 189, 3-(3,5-difluoro-4-((2-(trifluoromethyl)pyridin-4-yl)oxy)phenethoxy)-4-methoxy-7,8-dihydro-1H,6H,9H-7,8a-methanopyrrolo[1′,2′:3,4] imidazo[1,2-c] pyrimidin-1-one] | 8.6
CC12CCCN1c1cc(OCc3ccc(Oc4ccc(F)c(C(F)(F)F)c4)nc3)nc(=O)n1C2 (stereo not shown) [Example 58, 3-((6-(4-fluoro-3-(trifluoromethyl)phenoxy)pyridin-3-yl)methoxy)-8a-methyl-7,8,8a,9-tetrahydro-1H,6H-pyrrolo[1′,2′:3,4]imidazo [1,2-c]pyrimidin-1-one] | 204
CC12CCCN1c1cc(OCc3ccc(Oc4ccc(C(F)(F)F)cc4)c(C#N)c3)nc(=O)n1C2 (stereo not shown) [Example 60, 5-(((8a-methyl-1-oxo-7,8,8a,9-tetrahydro-1H,6H-pyrrolo[1′,2′:3,4]imidazo [1,2-c]pyrimidin-3-yl)oxy)methyl)-2-(4-(trifluoromethyl)phenoxy) benzonitrile] | 6.6
O=c1nc(OCc2cc(F)c(F)c(F)c2)cc2n1CC13CCC(CC1)N23 [Example 52, 3-((3,4,5-trifluorobenzyl)oxy)-7,8-dihydro-1H,6H,9H-6,8a-ethanopyrrolo[1′,2′:3,4] imidazo[1,2-c]pyrimidin-1-one] | 16
CCC12CCCN1c1cc(OCc3cc(F)c(Oc4cnc(C(F)(F)F)nc4)c(F)c3)nc(=O)n1C2 (stereo not shown) [Example 64, 3-((3,5-difluoro-4-((2-(trifluoromethyl)pyrimidin-5-yl)oxy)benzyl)oxy)-8a-ethyl-7,8,8a,9-tetrahydro-1H,6H-pyrrolo[1′,2′:3,4]imidazo [1,2-c]pyrimidin-1-one] | 22.6
O=c1nc(OCc2ccc(Oc3ccnc(Cl)c3)c(F)c2)cc2n1CC13CC(CN21)C3 [Example 155] | 3.7
CC12CCCN1c1cc(OCc3ccc(F)c(F)c3)nc(=O)n1C2 (stereo not shown) [Example 62, 3-((3,4-difluorobenzyl)oxy)-8a-methyl-7,8,8a,9-tetrahydro-1H,6H-pyrrolo[1′,2′:3,4]imidazo [1,2-c]pyrimidin-1-one] | 13
COc1c(OCc2ccc(F)c(F)c2)nc(=O)n2c1N1CC3CC1(C3)C2 [Example 150, 3-((3,4-difluorobenzyl)oxy)-4-methoxy-7,8-dihydro-1H,6H,9H-7,8a-methanopyrrolo[1′,2′:3,4] imidazo[1,2-c]pyrimidin-1-one] | 4.8
COc1c(OCc2cc(F)c(F)c(F)c2)nc(=O)n2c1N1C[C@@H]3C[C@]1(CO3)C2 [Example 114, (3S,11aR)-7-((3,4,5-trifluorobenzyl)oxy)-6-methoxy-3,4-dihydro-1H,9H,11H-3,11a-methanopyrimido[6′,1′:2,3] imidazo[5,1-c][1,4]oxazin-9-one] | 5.7
O=c1nc(OCc2ccccc2F)cc2n1CC13CC(CN21)C3 [Example 44, 3-((2-fluorobenzyl)oxy)-7,8-dihydro-1H,6H,9H-7,8a-methanopyrrolo[1′,2′:3,4] imidazo[1,2-c]pyrimidin-1-one] | 342
O=c1nc(OCc2ccc(Oc3cnc(C(F)(F)F)nc3)c(F)c2)cc2n1CC13CCC(CC1)N23 [Example 128, 3-((3-fluoro-4-((2-(trifluoromethyl)pyrimidin-5-yl)oxy)benzyl)oxy)-7,8-dihydro-1H,6H,9H-6,8a-ethanopyrrolo[1′,2′:3,4] imidazo[1,2-c]pyrimidin-1-one] | 8.4
CC12COCCN1c1cc(OCc3cc(F)c(F)c(F)c3)nc(=O)n1C2 (stereo not shown) [Example 86] | 6.1
CN1C(=O)[C@]23C[C@H]1CN2c1cc(OCc2ccc(Oc4ccc(Cl)c(C(F)(F)F)c4)c(C#N)c2)nc(=O)n1C3 [Example 168] | 3.6

Results, then the compound that gave them:

IC50 [nM] | SMILES
5.5 | O=c1nc(OCc2cc(F)c(Oc3ccnc(C(F)(F)F)c3)c(F)c2)cc2n1C[C@@]13CO[C@@H](CN21)C3 [Example 26, (3R,11aS)-7-((3,5-difluoro-4-((2-(trifluoromethyl)pyridin-4-yl)oxy)benzyl)oxy)-3,4-dihydro-1H,9H,11H-3,11a-methanopyrimido[6′,1′:2,3] imidazo[5,1-c][1,4]oxazin-9-one]
3 | N#Cc1cc(COc2cc3n(c(=O)n2)C[C@]24CO[C@H](CN32)C4)ccc1Oc1ccnc(C(F)(F)F)c1 [Example 22, 5-((((3S,11aR)-9-oxo-3,4-dihydro-1H,9H,11H-3,11a-methanopyrimido[6′,1′:2,3]imidazo[5,1-c][1,4]oxazin-7-yl)oxy)methyl)-2-((2-(trifluoromethyl)pyridin-4-yl)oxy)benzonitrile]
4.3 | N#Cc1cc(Oc2ccc(COc3cc4n(c(=O)n3)C[C@]35CO[C@H](CN43)C5)cc2F)cc(C(F)(F)F)c1 [Example 12]
2.4 | O=c1nc(OCc2cc(F)c(Oc3ccc(C(F)(F)F)cc3)c(F)c2)cc2n1C[C@]13CO[C@H](CN21)C3 [Example 144, (3S,11aR)-7-((3,5-difluoro-4-(4-(trifluoromethyl)phenoxy)benzyl)oxy)-3,4-dihydro-1H,9H,11H-3,11a-methanopyrimido[6′1′:2,3] imidazo[5,1-c][1,4]oxazin-9-one]
10.9 | Cc1cc(Oc2c(F)cc(COc3nc(=O)n4c(c3F)N3C[C@@H]5C[C@]3(CO5)C4)cc2F)ccn1 [Example 89, (3S,11aR)-7-((3,5-difluoro-4-((2-methyl-pyridin-4-yl)oxy)benzyl)oxy)-6-fluoro-3,4-dihydro-1H,9H,11H-3,11a-methanopyrimido[6′,1′:2,3] imidazo[5,1-c][1,4]oxazin-9-one]
2.1 | O=c1nc(OCc2cc(F)c(Oc3ccnc(C(F)(F)F)c3)c(F)c2)cc2n1CC13CC(F)(CN21)C3 [Example 158, 3-((3,5-difluoro-4-((2-(trifluoromethyl)pyridin-4-yl)oxy)benzyl)oxy)-7-fluoro-7,8-dihydro-1H,6H,9H-7,8a-methanopyrrolo[1′,2′:3,4] imidazo[1,2-c]pyrimidine-1-one]
3.5 | N#Cc1cc(COc2cc3n(c(=O)n2)C[C@]24CO[C@H](CN32)C4)ccc1Oc1ccc(Cl)c(C(F)(F)F)c1 [Example 18, 5-((((3S,11aR)-9-oxo-3,4-dihydro-1H,9H,11H-3,11a-methanopyrimido[6′,1′:2,3]imidazo[5,1-c][1,4]oxazin-7-yl)oxy)methyl)-2-(4-chloro-3-(trifluoromethyl)phenoxy) benzonitrile]
5.8 | O=c1nc(OCc2cc(F)c(Oc3cccc(F)c3)c(F)c2)cc2n1C[C@]13CO[C@H](CN21)C3 [Example 137]
38.8 | O=c1nc(OCc2cc(F)c(F)c(F)c2)cc2n1C[C@@]13CO[C@@H](CN21)C3 [Example 35, (3R,11aS)-7-((3,4,5-trifluorobenzyl)oxy)-3,4-dihydro-1H,9H,11H-3,11a-methanopyrimido[6′,1′:2,3] imidazo[5,1-c][1,4]oxazin-9-one]
4.1 | O=c1nc(OCc2cc(F)c(Oc3cccc(C(F)F)c3)c(F)c2)cc2n1C[C@]13CO[C@H](CN21)C3 [Example 179]

From US20230044787A1, “TRICYCLE DIHYDROIMIDAZOPYRIMIDONE DERIVATIVE, PREPARATION METHOD THEREOF, PHARMACEUTICAL COMPOSITION AND USE THEREOF” (priority 2019, published 2023)
